How the values were obtained:
[1] = test system: Pcca^−/−PCCA(A138T)^tg/0 mice; assay: Total CoA in liver and brain of Pcca−/−PCCA(A138T)tg/0 mice; format: in vivo; conditions: 22.5 ppm (3 mg/kg) in chow for 30 days after weaning
From the text: Water was supplied ad libitum.

[2] = test system: Pcca^−/−PCCA(A138T)^tg/0 mice; assay: Plasma and urine acyl carnitines in Pcca−/−PCCA(A138T)tg/0 mice; format: in vivo
Procedure: (§2) The mice were maintained at 72′±2° F., humidity 50%±10% and a 14-hour light/10-hour dark cycle with the dark cycle starting at 20:00 hrs. Water was supplied ad libitum. The mice were randomized into the treatment arms to achieve a normal weight distribution. […] Blood was collected in ethylenediaminetetraacetic acid (EDTA) at P50 by cardiac puncture from isoflurane-anesthetized animals, plasma was prepared and stored frozen at −80° C. until analysis. Liver, brain, and heart were quickly excised, immediately flash frozen in liquid nitrogen and stored frozen at −80° C. until analysis.
(§3) Metabolites from Urine and Plasma: Water was added to thawed 24-hr urine samples to a final volume of 1 mL for each mouse. To 100 μL of urine or 20 μL of plasma, warfarin standard was added at a final concentration of 0.2 μM and the sample was incubated at −80° C. for 1 hour. The sample was centrifuged at 6000×g for 10 minutes to remove precipitants and the supernatant was analyzed by LC/MS/MS. Analysis was performed using a Shimadzu Prominence UFLC attached to a QTrap 4500 equipped with a Turbo V ion source (Sciex). […] The system was controlled by the Analyst® software (Sciex) and analyzed with MultiQuant™ 3.0.2 software (Sciex). The relative amount of metabolite was normalized to the amount of warfarin then the ratio to creatinine was calculated.

[3] = test system: Pcca^−/−PCCA(A138T)^tg/0 mice; assay: Plasma and urine metabolites (TCA cycle intermediates) in Pcca−/−PCCA(A138T)tg/0 mice; format: in vivo; conditions: 22.5 ppm (3 mg/kg) in chow
Procedure: as §2, §3

[4] = test system: Pank1,2 neural knockout mice; assay: Total forebrain CoA in Pank1,2 neural knockout mice; format: in vivo; conditions: 75 ppm in chow from postnatal day 14; assessed at postnatal day 45
From the text: (§1) Water was supplied ad libitum. Mice were maintained on a chow diet with purified ingredients containing 19% kcal protein, 66.5% kcal carbohydrate and 14.4% kcal fat (Envigo #TD170542) which was similar to standard rodent chow (LabDiet #5013). The mice were randomized into the treatment arms. […] However, this is an approximation, as SynCre^+Pank1^−/−Pank2^−/− mice both weigh less and eat less than wild-type mice. […] At the end of the dark cycle, individual mice were placed in an open rectangular arena (36.8 cm×43.2 cm) for 5 min during the light cycle and motor activity was evaluated using a video tracking system provided by HVS Image with associated 2100 Plus software (San Diego, CA, USA). Each animal was placed in the center of the arena under standard overhead lighting and the total distance traveled and the percentage of time in motion were recorded. The behaviors of age-matched control animals, treated with Compound (I) and untreated, were quantified and compared. […] Liver, forebrain and hindbrain were quickly excised, approximately 30-50 mg pieces were immediately flash frozen in liquid N2 and stored frozen at −80° C. until analysis. The plasma and tissue samples were used for Compound (I) and total CoA determinations.
Statistical significance was determined using a two-tailed Student's t test (GraphPad software) and P-values are shown about the bars, N=6-8. […]

[5] = test system: Pank1,2 neural knockout mice; assay: Body weight of Pank1,2 neural knockout mice; format: in vivo; conditions: 75 ppm in chow from postnatal day 14
From the text: as §1
Following analysis of movement, all animals were sacrificed at postnatal Day 45 for examination of tissue CoA levels.

[6] = From the text: Safety and tolerability endpoints will include monitoring and recording of AEs, clinical laboratory test results (hematology, serum chemistry, and urinalysis), vital sign measurements, 12-lead ECG results, and physical examination findings. The PA/MMA cohort will also be screened for suicidal ideation using the C-SSRS.
[7] = in vivo
Procedure: Holter monitoring will be obtained as indicated in the SOE. Blood and urine for PK and PD will be obtained and safety assessments will be performed. In addition, Cohort 3 (70 mg cohort) will have CSF obtained via lumbar puncture for PK assessment.

clinical = conditions: for half-life / AUC / Cmax / Tmax: human, plasma; for AUC: AUCtau; for AUC / Cmax: arithmetic mean
From the text: Following the screening period, eligible subjects will be admitted to the clinical unit on Day 1. All subjects will receive the study drug for 7 days starting on Day 1. […] Dosing frequency and any instructions regarding meal intake will depend on data from the SAD cohorts and will be provided in a separate document. The dosing duration may be increased to up to 14 days to allow for achievement of 3 half-lives. […] Subjects will return for an EOS visit on Day 15 or up to approximately 5 half-lives up to a maximum of Day 42 (whichever is longer).
The tentative starting dose for this portion of the study will be 30 mg daily. Dose escalation for Cohort 2 and beyond will be based on the safety, tolerability, and PK of the previous cohort. […] Planned doses for subsequent cohorts are 60, 120, 200, and 300 mg daily; the maximum dose increment between cohorts will be no more than 2 times the previous dose.

PanK = assay: Phase 1 pharmacodynamic biomarkers, plasma pantothenate and whole blood acetyl-CoA; format: in vivo, human; conditions: MAD cohorts at steady-state
From the text: Pharmacodynamic biomarker assessments will include whole blood acetyl-CoA, plasma pantothenate, and other exploratory PD biomarkers.
Pharmacodynamic biomarker samples will be analyzed using a validated assay for the PD assessments.
In MAD cohorts at steady-state, decreases in the PanK substrate, pantothenate, were observed, concurrent with increases in the PanK product, acetyl-CoA, in whole blood.

[8] = 22.5 ppm (3 mg/kg) in chow for 30 days after weaning
Procedure: The mice were maintained at 72′±2° F., humidity 50%±10% and a 14-hour light/10-hour dark cycle with the dark cycle starting at 20:00 hrs. Water was supplied ad libitum. The mice were randomized into the treatment arms to achieve a normal weight distribution. […] However, this is merely an approximation, as Pcca^−/−PCCA(A138T)^tg/0 mice weigh less but also eat less than wild-type mice. […] Blood was collected in ethylenediaminetetraacetic acid (EDTA) at P50 by cardiac puncture from isoflurane-anesthetized animals, plasma was prepared and stored frozen at −80° C. until analysis. Liver, brain, and heart were quickly excised, immediately flash frozen in liquid nitrogen and stored frozen at −80° C. until analysis.
The samples were incubated on ice for 30 min. Samples were spun at 3500×g for 10 min to pellet debris, and the supernatant was transferred to a glass vial. […] 30 mg of tissue was homogenized in 2 mL of 80% methanol containing 0.1 μM warfarin and incubated at −80° C. for 4 hr. Samples were spun at 3500×g for 10 min to pellet debris, supernatant was transferred to a glass tube and dried down using a Savant SPD1010 Speed-Vac (Thermo Scientific) overnight. Samples were resuspended in 400 μL of 80% acetonitrile to a final concentration of 0.5 μM and transferred to a glass vial. […]

[9] = test system: C57BL/6J (wild-type) mice; conditions: oral gavage QD 0.1, 1, 3, 10 or 30 mg/kg for one week; four hours after last dose
Procedure: Tissue Total CoA Determinations: Total CoA was quantified as described earlier. Either frozen brain or liver tissue (30-40 mg) was homogenized in 1 mM potassium hydroxide (KOH) to hydrolyze all the acyl chains and then the CoA was derivatized with monobromobimane (mBBr). […] The retention time was determined by running a CoA standard before each set of samples. Total CoA was quantified using a standard curve generated with known amounts of CoA.
Control animals were administered 0.5% methylcellulose QD for one week. Four hours after the last dose, the animals were sacrificed, plasma and tissues were collected, and CoA levels were determined in tissues. […] Statistical significance was determined for total CoA using a Student's t-test calculated with GraphPad software and P-values compared to the control animals are noted on the figure panels.

[10] = 60 mg, fed vs fasted
Procedure: All subjects will receive 2 doses of study drug in a crossover manner, separated by a washout period of 7 days or 5 half-lives up to 21 days (whichever is longer).
Study drug will then be administered along with a standardized high-calorie (approximately 800 to 1000 calories) breakfast. The meal will be ingested entirely within 30 minutes, and study drug will be administered 30 minutes after the start of the meal.

in vivo = conditions: dog
[11] = of all Compound (I) treated subjects

In the case of `O=C(Cc1ccc(C2CC2)c(F)c1)N1CCN(c2ccc(Cl)nn2)CC1` [Compound (I), 1-(4-(6-chloropyridazin-3-yl)piperazin-1-yl)-2-(4-cyclopropyl-3-fluorophenyl)ethan-1-one], the “Increase of brain total CoA compared to untreated mice” value ([1]; brain) is reported as about 44%, the “Increase of liver total CoA compared to untreated mice” value ([1]; liver) is reported as about 45% and the “Decreased free carnitine and C2-carnitine levels in plasma and urine” value ([2]; 22.5 ppm (3 mg/kg) in chow for 30 days after weaning) is reported as “rescued”. For the same molecule, the C3-carnitine in plasma ([2]; 22.5 ppm (3 mg/kg) in chow, plasma) was “decreased”, the “Levels of methylcitrate, methylmalonate and α-ketoglutarate in plasma” value [3] was “reduced” and the “Increase of forebrain CoA levels vs untreated mice” value [4] was about 70%. For the same molecule, the “Body weight gain compared with untreated mice” value [5] was “significantly increased”, the Tolerability ([6]; 60 healthy adult subjects, Phase 1 study) was “generally well-tolerated” and the “Mild treatment-related TEAE abdominal pain” value [6, 11] was 1.7%. For the same molecule, the “Mild treatment-related TEAE headache” value [6, 11] was 5%, the “Mild treatment-related TEAE nausea” value [6, 11] was 1.7% and the “Blood brain barrier penetration” value [7] was “crossed the blood brain barrier”. For the same molecule, the “Urinary excretion of Compound (I)” value (clinical; healthy subjects) was “negligible”, the half-life (clinical; oral) was 6 to 8 h and the half-life (clinical; oral, 30 mg) was 7.55 h. The AUC (clinical; oral, 30 mg, 30 mg QD, Day 1, AUC0-24) was 476 ng·h/mL, the AUC (clinical; oral, 30 mg, 30 mg QD, Day 7, AUC0-24) was 913 ng·h/mL and the Cmax (clinical; oral, 30 mg, 30 mg QD, Day 1) was 98.3 ng/mL. It also gave a Cmax (clinical; oral, 30 mg, 30 mg QD, Day 7) of 158 ng/mL, a Tmax (clinical; oral, 30 mg, Tmax, 30 mg QD, Day 1, median) of 1.5 h and a Tmax (clinical; oral, 30 mg, Tmax, 30 mg QD, Day 7, median) of 1.5 h. The AUC (clinical; oral, 50 mg, 50 mg Q12H, Day 1, AUC0-12) was 925 ng·h/mL, the Cmax (clinical; oral, 50 mg, 50 mg Q12H, Day 1) was 155 ng/mL and the Tmax (clinical; oral, 50 mg, Tmax, 50 mg Q12H, Day 1, median) was 1.5 h. The half-life (clinical; oral, 60 mg) was 6.7 h, the AUC (clinical; oral, 60 mg, 60 mg QD, Day 1, AUC0-24) was 1670 ng·h/mL and the AUC (clinical; oral, 60 mg, 60 mg QD, Day 7, AUC0-24) was 4050 ng·h/mL. The Cmax (clinical; oral, 60 mg, 60 mg QD, Day 1) was 240 ng/mL, the Cmax (clinical; oral, 60 mg, 60 mg QD, Day 7) was 505 ng/mL and the Tmax (clinical; oral, 60 mg, Tmax, 60 mg QD, Day 1, median) was 1.75 h. For the same molecule, the Tmax (clinical; oral, 60 mg, Tmax, 60 mg QD, Day 7, median) was 2.01 h, the half-life (clinical; oral, 70 mg) was 6.83 h and the AUC (clinical; oral, 70 mg, 70 mg QD, Day 7, AUC0-24) was 2950 ng·h/mL. The Cmax (clinical; oral, 70 mg, 70 mg QD, Day 1) was 205 ng/mL, the Cmax (clinical; oral, 70 mg, 70 mg QD, Day 7) was 400 ng/mL and the Tmax (clinical; oral, 70 mg, Tmax, 70 mg QD, Day 1, median) was 1.5 h. The Tmax (clinical; oral, 70 mg, Tmax, 70 mg QD, Day 7, median) was 1.5 h, the Tmax (clinical; po, Tmax after oral administration, healthy subjects, over cohorts) was 1 to 2 h and the “Increase in exposure with dose” value (clinical; total daily dose increased from 30 mg to 100 mg) was “more than dose-proportional”. The “Plasma Compound (I) concentration up to which increases in whole blood acetyl-CoA were observed” value (PanK) was about 200 mg/mL, the Plasma pantothenate (PanK; healthy adult subjects) was “decreased” and the “Whole blood acetyl-CoA” value (PanK; healthy adult subjects) was “increased”. For the same molecule, the “Distribution of Compound (I) into liver, brain and heart” value [8] was “well distributed into the liver, and to a lesser extent in brain and heart”, the “Exposure in female mice versus males” value [8] was “higher exposures than males” and the “Brain (forebrain and hindbrain) total CoA response” value [9] was “dose-responsive increase”. The “Delay of absorption by food” value [10] was about 2 h, the “Increase in plasma exposure with food” value [10] was about 1.3 fold and the clearance (in vivo; iv) was 16.9 mL/min/kg. The bioavailability (in vivo; po) was 29.8%.

Source: US20260183283A1 (priority 2022, published 2026)
